According to PMC6166228 (ACS Omega, 2018):

Legend:
[1] = no species and reference not given; cited from earlier work
human AT1 receptor = target: T1, human AT1 receptor (Homo sapiens, UniProt P30556); format: binding
T1 sequence (P30556 1-359): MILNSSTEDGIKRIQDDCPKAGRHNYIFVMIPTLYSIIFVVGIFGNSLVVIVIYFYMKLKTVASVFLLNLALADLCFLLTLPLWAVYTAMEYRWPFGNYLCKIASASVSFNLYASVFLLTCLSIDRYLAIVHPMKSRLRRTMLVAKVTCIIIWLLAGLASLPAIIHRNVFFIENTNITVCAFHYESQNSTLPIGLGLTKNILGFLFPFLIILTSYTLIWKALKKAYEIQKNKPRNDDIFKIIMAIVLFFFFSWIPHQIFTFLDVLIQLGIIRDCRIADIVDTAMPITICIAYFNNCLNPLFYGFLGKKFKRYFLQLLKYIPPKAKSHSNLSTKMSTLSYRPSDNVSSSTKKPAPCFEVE

Structure (SMILES)	average half-life [1]	Ki (human AT1 receptor) [µM]
CCCCC(=O)N(Cc1ccc(-c2ccccc2-c2nnn[nH]2)cc1)[C@H](C(=O)O)C(C)C [valsartan]	around 6 h	
CC(C)[C@@H](C(=O)O)N(Cc1ccc(-c2ccccc2-c2nnn[nH]2)cc1)C(=O)CCCCF [FV45, (S)-2-(N-((2′-(1H-Tetrazol-5-yl)-[1,1′-biphenyl]-4-yl)methyl)-5-fluoropentanamido)-3-methylbutanoic Acid]		0.0146
